Like-named read-outs stand apart in the source and are kept apart here. No end group written: not given here.

Drawing on US20060079453A1, “Hla binding peptides and their uses” (priority 2002, published 2006), this text covers IC50 for 26 molecules.

One assay concerns the target HLA-A*2301 (Homo sapiens, UniProt P04439, D101N/D140Y/D185E/E176V/E190D/F33S/G103R/G107R/H175R/I119L/I121M/I306V/K168Q/K335N/L105A/L300P/N151K/N90K/P307H/Q86E/Q94H/R106L/R138H/R89G/T104I/T345S/V100E/W191G/Y123F). Kind of assay: biochemical. It is filed as binding.
A further assay has as its target HLA-A*2902 (Homo sapiens, UniProt P04439, A270S/D101N/D185E/E176V/E277Q/E87Q/F33T/G231S/H175R/I121M/I218V/I322F/K168Q/L300P/L318F/M331R/P208A/P217A/Q86L/T323A/T345S/V100A/V358M). Description: MHC molecular binding / Capture assay, IC50: A*2902.
The next assay addresses HLA-A*3002 (Homo sapiens, UniProt P04439, D101N/D140H/D185E/E176R/F33S/G80R/H175R/K168Q/Q94H/R138E/R41S/V100E). Description: biochemical. Format: binding.
The next assay has as its target HLA-A*0203 (Homo sapiens, UniProt P04439, A173T/D140Y/D185E/D98H/E277Q/G131W/G231S/I119V/I121R/I166T/I218V/L180W/L300P/L318F/N151K/N90K/P208A/P217A/Q86G/Q94H/R138H/R169H/T345S). Description: biochemical. Format: binding.
Another assay addresses HLA-A*0202 (Homo sapiens, UniProt P04439, D140Y/D185E/D98H/E176V/E277Q/G131W/G231S/I119L/I121R/I166T/I218V/L180W/L300P/L318F/N151K/N90K/P208A/P217A/Q67R/Q86G/Q94H/R138H/R169H/T345S). Description: biochemical. Format: binding.
For a further assay, the target named is HLA-A*6802 (Homo sapiens, UniProt P04439, A269V/D140Y/D185E/E176V/E277Q/E87N/F33Y/G231S/I121R/I166T/I218V/L180W/L300P/L318F/N151K/P208A/P217A/Q86R/R138H/R169H/S129P/T345S/V36M). Kind of assay: biochemical. Format: binding.
For another assay, the target named is HLA-A*0201 (Homo sapiens, UniProt P04439, D140Y/D185E/D98H/E176V/E277Q/G131W/G231S/I119V/I121R/I166T/I218V/L300P/L318F/N151K/N90K/P208A/P217A/Q86G/Q94H/R138H/R169H/T345S). Kind of assay: biochemical. It is filed as binding.
Another assay has as its target HLA-A*0206 (Homo sapiens, UniProt P04439, D140Y/D185E/D98H/E176V/E277Q/F33Y/G131W/G231S/I119V/I121R/I166T/I218V/L300P/L318F/N151K/N90K/P208A/P217A/Q86G/Q94H/R138H/R169H/T345S). Kind of assay: biochemical. Format: binding.
The mark [1] stands for this setting: A*0203 binding affinity (expressed as an IC50).
Where [2] appears, read: A*0202 binding affinity (expressed as an IC50).
[3] abbreviates: A*6802 binding affinity (expressed as an IC50).
The mark [4] stands for this setting: A*0201 binding affinity (expressed as an IC50).
The mark [5] stands for this setting: A*0206 binding affinity (expressed as an IC50).

As usually defined, the IC50 is the concentration that gives 50% inhibition. For the molecule VFNVVNSSI, the IC50 at HLA-A*2301 was determined as 35 nM; on HLA-A*2902 (A*2902 binding affinity (IC50)), 24000 nM.

VYDFVFADLRI: the results for the IC50 against HLA-A*2301, on HLA-A*2902 (A*2902 binding affinity (IC50)) and at HLA-A*3002 (A*3002 binding affinity (IC50)) were 8 nM, 8900 nM and 7580 nM, respectively.

For KYQGPGPGTTL, the results for the IC50 against HLA-A*2301, at HLA-A*2902 (A*2902 binding affinity (IC50)) and at HLA-A*3002 (A*3002 binding affinity (IC50)) were 438 nM, 74500 nM and 6000 nM, respectively.

On to RVLPPNWKY, for which the IC50 was more than 49000 nM against HLA-A*2301 and 3 nM against HLA-A*3002.

As for KYGPGPGTTTL, the IC50 is 130 nM against HLA-A*2301, 9180 nM at HLA-A*2902 (A*2902 binding affinity (IC50)) and 7060 nM at HLA-A*3002 (A*3002 binding affinity (IC50)).

On to QLPPLERLTF, for which the IC50 is 338 nM at HLA-A*2301, more than 37300 nM at HLA-A*2902 and more than 36600 nM against HLA-A*3002.

As for TYGPGPGSLSF, the IC50 on HLA-A*2301 stood at 1.7 nM; on HLA-A*2902 (A*2902 binding affinity (IC50)), 9850 nM; on HLA-A*3002 (A*3002 binding affinity (IC50)), 47200 nM.

For TYSVGPGPGF, the IC50 at HLA-A*2301 amounted to 340 nM; on HLA-A*2902 (A*2902 binding affinity (IC50)), 121000 nM; on HLA-A*3002 (A*3002 binding affinity (IC50)), 55200 nM.

With LFTDLRIVF, the values for the IC50 on HLA-A*2301, at HLA-A*2902 and at HLA-A*3002 were 2.6 nM, 164 nM and 2650 nM, respectively.

On to `CC[C@H](C)[C@H](N)C(=O)N[C@@H](CCSC)C(=O)N[C@H](C(=O)N[C@@H](CC(C)C)C(=O)N[C@@H](CO)C(=O)N[C@@H](Cc1ccccc1)C(=O)N[C@@H](CC(C)C)C(=O)N[C@@H](Cc1ccccc1)C(=O)O)C(C)C`, for which the figures for the IC50 against HLA-A*2301 and against HLA-A*3002 were 7.5 nM and 30000 nM, respectively.

As to VYKFLFTDLRI, the IC50 against HLA-A*2301 was 14 nM; on HLA-A*2902 (A*2902 binding affinity (IC50)) it was 30200 nM; on HLA-A*3002 (A*3002 binding affinity (IC50)) it was 1870 nM.

On to FYSKVSEF, for which the IC50 on HLA-A*2301 came to 18 nM; at HLA-A*3002 (A*3002 binding affinity (IC50)), 66700 nM.

Take IISAVVGFL: the IC50 on HLA-A*0203 (setting [1]) came out at 4.8 nM; on HLA-A*0202 (setting [2]), 1 nM; at HLA-A*6802 (setting [3]) it was 77 nM; at HLA-A*0201 (setting [4]), 747 nM; at HLA-A*0206 (setting [5]), 234 nM.

As for IISAVVGIV, the IC50 was 20 nM on HLA-A*0203 (setting [1]); 15 nM at HLA-A*0202 (setting [2]); 390 nM on HLA-A*6802 (setting [3]); 712 nM at HLA-A*0201 (setting [4]); 958 nM at HLA-A*0206 (setting [5]).

Take TYSGPGPGLF: the IC50 against HLA-A*2301 is 92 nM; at HLA-A*2902 (A*2902 binding affinity (IC50)), 7730 nM.

For the molecule LFLSTLSF, the IC50 against HLA-A*2301 is 160 nM; on HLA-A*3002 (A*3002 binding affinity (IC50)), more than 75000 nM.

For WLSGPGPGV, the IC50 on HLA-A*0203 (setting [1]) is 12 nM; at HLA-A*0202 (setting [2]), 2.5 nM; at HLA-A*6802 (setting [3]) it was 24 nM; on HLA-A*0201 (setting [4]) it was 220 nM; on HLA-A*0206 (setting [5]), 885 nM.

For TYCCKCDSTL, the IC50 on HLA-A*2301 (read-out: A*2301 binding affinity (IC50)) came to 30 nM.

Consider ILAEAMSQA, for which the IC50 on HLA-A*0203 worked out at 1.1 nM; at HLA-A*0202, 1 nM; against HLA-A*6802 it was 253 nM; on HLA-A*0201, 29 nM; against HLA-A*0206, 8.6 nM.

Regarding KISAVVGIL, the IC50 on HLA-A*0203 (setting [1]) amounted to 60 nM; on HLA-A*0202 (setting [2]) it was 42 nM; on HLA-A*6802 (setting [3]), 4950 nM; on HLA-A*0201 (setting [4]), 6240 nM; on HLA-A*0206 (setting [5]), 1750 nM.

With YLLTLWKAGI, the IC50 against HLA-A*0203 is 20 nM; against HLA-A*0202 it was 19 nM; at HLA-A*6802 it was 1390 nM; against HLA-A*0201 it was 20 nM; at HLA-A*0206, 40 nM.

VLAEAMSQT: the IC50 came to 0.65 nM against HLA-A*0203; 2.2 nM on HLA-A*0202; 447 nM on HLA-A*6802; 290 nM against HLA-A*0201; 236 nM on HLA-A*0206.

With QLVGPGPGMEV, the IC50 at HLA-A*0203 (setting [1]) is 19 nM; on HLA-A*0202 (setting [2]) it was 17 nM; at HLA-A*6802 (setting [3]), 223 nM; on HLA-A*0201 (setting [4]), 865 nM; at HLA-A*0206 (setting [5]), 919 nM.

Consider SLLGPGPGAV, for which the IC50 at HLA-A*0203 (setting [1]) turned out to be 2.6 nM; at HLA-A*0202 (setting [2]), 17 nM; on HLA-A*6802 (setting [3]), 795 nM; on HLA-A*0201 (setting [4]), 95 nM; at HLA-A*0206 (setting [5]), 642 nM.

For FLPGPGPGSV, the IC50 on HLA-A*0203 (setting [1]) is 4 nM; on HLA-A*0202 (setting [2]) it was 18 nM; on HLA-A*6802 (setting [3]) it was 332 nM; at HLA-A*0201 (setting [4]), 98 nM; on HLA-A*0206 (setting [5]), 665 nM.

Regarding GLIYSKKRQEV, the IC50 against HLA-A*0203 was 152 nM; against HLA-A*0202 it was 57 nM; against HLA-A*6802 it was more than 14300 nM; on HLA-A*0201, 8970 nM; against HLA-A*0206, more than 8560 nM.
